# Biological target: BCL6 (Homo sapiens (Human), UniProt P41182)
# Assay: Immunofluorescence high content imaging of BCL6 degradation in T47D cells
# Assay type: cell-based
# Settings: not given
# Summary of the method: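 Seed T47D in RPMI1640-10% FBS to reach ~70-90% confluence at endpoint; add degrader next day (11-point 3-fold series, top 0.1 or 1 μM final) for 3 days. Then fix, permeabilize, stain BCL6 with nuclear Hoechst, and image.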
row,IC50 [nM],SMILES
1,10 to 50,"CNC(=O)COc1cc2cc(Nc3nc(N4CCN(C(C)(C)C5CCN(c6ccc7c(c6)C(=O)N(C6CCC(=O)NC6=O)C7=O)CC5)CC4)ncc3Cl)ccc2n(C(C)C)c1=O (centres unmarked) [compound 299, 2-{[6-({5-chloro-2-[4-(2-{1-[2-(2,6-dioxopiperidin-3-yl)-1,3-dioxo-2,3-dihydro-1H-isoindol-5-yl]piperidin-4-yl}propan-2-yl)piperazin-1-yl]pyrimidin-4-yl}amino)-2-oxo-1-(propan-2-yl)-1,2-dihydroquinolin-3-yl]oxy}-N-methylacetamide]"
2,10 to 50,"CCn1c(=O)c(OCC(=O)NC)cc2cc(Nc3nc(N4CCC(OC5CN(CC6CN(c7ccc8c(c7)C(=O)N(C7CCC(=O)NC7=O)C8=O)C6)C5)CC4)ncc3Cl)ccc21 (centres unmarked) [compound 309, 2-[(6-{[5-chloro-2-(4-{[1-({1-[2-(2,6-dioxopiperidin-3-yl)-1,3-dioxo-2,3-dihydro-1H-isoindol-5-yl]azetidin-3-yl}methyl)azetidin-3-yl]oxy}piperidin-1-yl)pyrimidin-4-yl]amino}-1-ethyl-2-oxo-1,2-dihydroquinolin-3-yl)oxy]-N-methylacetamide]"

# Same assay, conditions: T47D
row,Dmax [%],SMILES
1,≥ 70,"CNC(=O)COc1cc2cc(Nc3nc(N4CCN(C(C)(C)C5CCN(c6ccc7c(c6)C(=O)N(C6CCC(=O)NC6=O)C7=O)CC5)CC4)ncc3Cl)ccc2n(C(C)C)c1=O (centres unmarked) [compound 299, 2-{[6-({5-chloro-2-[4-(2-{1-[2-(2,6-dioxopiperidin-3-yl)-1,3-dioxo-2,3-dihydro-1H-isoindol-5-yl]piperidin-4-yl}propan-2-yl)piperazin-1-yl]pyrimidin-4-yl}amino)-2-oxo-1-(propan-2-yl)-1,2-dihydroquinolin-3-yl]oxy}-N-methylacetamide]"
2,50 to 70,"CCn1c(=O)c(OCC(=O)NC)cc2cc(Nc3nc(N4CCC(OC5CN(CC6CN(c7ccc8c(c7)C(=O)N(C7CCC(=O)NC7=O)C8=O)C6)C5)CC4)ncc3Cl)ccc21 (centres unmarked) [compound 309, 2-[(6-{[5-chloro-2-(4-{[1-({1-[2-(2,6-dioxopiperidin-3-yl)-1,3-dioxo-2,3-dihydro-1H-isoindol-5-yl]azetidin-3-yl}methyl)azetidin-3-yl]oxy}piperidin-1-yl)pyrimidin-4-yl]amino}-1-ethyl-2-oxo-1,2-dihydroquinolin-3-yl)oxy]-N-methylacetamide]"

# Same assay, conditions: T47D cells
Dmax [%],IC50 [nM],SMILES
50 to 70,< 10,"CNC(=O)COc1cc2cc(Nc3nc(N4CC5(CCN(CC6CCN(c7ccc8c(c7)C(=O)N(C7CCC(=O)NC7=O)C8=O)CC6)CC5)C4)ncc3Cl)ccc2n(C(C)C)c1=O (centres unmarked) [compound 422, 2-{[6-({5-chloro-2-[7-({1-[2-(2,6-dioxopiperidin-3-yl)-1,3-dioxo-2,3-dihydro-1H-isoindol-5-yl]piperidin-4-yl}methyl)-2,7-diazaspiro[3.5]nonan-2-yl]pyrimidin-4-yl}amino)-2-oxo-1-(propan-2-yl)-1,2-dihydroquinolin-3-yl]oxy}-N-methylacetamide]"
50 to 70,< 10,"CNC(=O)COc1cc2cc(Nc3nc(N4CCC5(CC4)CN(CC4CCN(c6cccc7c6C(=O)N(C6CCC(=O)NC6=O)C7=O)CC4)C5)ncc3Cl)ccc2n(C(C)C)c1=O (centres unmarked) [compound 385, 2-{[6-({5-chloro-2-[2-({1-[2-(2,6-dioxopiperidin-3-yl)-1,3-dioxo-2,3-dihydro-1H-isoindol-4-yl]piperidin-4-yl}methyl)-2,7-diazaspiro[3.5]nonan-7-yl]pyrimidin-4-yl}amino)-2-oxo-1-(propan-2-yl)-1,2-dihydroquinolin-3-yl]oxy}-N-methylacetamide]"
50 to 70,< 10,"CCn1c(=O)c(OCC(=O)NC)cc2cc(Nc3nc(N4CCC(CN5CC(C6CN(c7ccc8c(c7)C(=O)N(C7CCC(=O)NC7=O)C8=O)C6)C5)CC4)ncc3Cl)ccc21 (centres unmarked) [compound 316, 2-{[6-({5-chloro-2-[4-({1′-[2-(2,6-dioxopiperidin-3-yl)-1,3-dioxo-2,3-dihydro-1H-isoindol-5-yl]-[3,3′-biazetidin]-1-yl}methyl)piperidin-1-yl]pyrimidin-4-yl}amino)-1-ethyl-2-oxo-1,2-dihydroquinolin-3-yl]oxy}-N-methylacetamide]"
≥ 70,< 10,"CNC(=O)COc1cc2cc(Nc3nc(N4CCN(CC5(F)CCN(c6cccc7c6C(=O)N(C6CCC(=O)NC6=O)C7=O)CC5)CC4)ncc3Cl)ccc2n(C)c1=O (centres unmarked) [compound 341, 2-{[6-({5-chloro-2-[4-({1-[2-(2,6-dioxopiperidin-3-yl)-1,3-dioxo-2,3-dihydro-1H-isoindol-4-yl]-4-fluoropiperidin-4-yl}methyl)piperazin-1-yl]pyrimidin-4-yl}amino)-1-methyl-2-oxo-1,2-dihydroquinolin-3-yl]oxy}-N-methylacetamide]"
≥ 70,< 10,"CNC(=O)COc1cc2cc(Nc3nc(N4CCC(CN5CC6(CCN(c7ccc8c(c7)CN(C7CCC(=O)NC7=O)C8=O)CC6)C5)CC4)ncc3Cl)ccc2n(C(C)C)c1=O (centres unmarked) [compound 436, 2-{[6-({5-chloro-2-[4-({7-[2-(2,6-dioxopiperidin-3-yl)-1-oxo-2,3-dihydro-1H-isoindol-5-yl]-2,7-diazaspiro[3.5]nonan-2-yl}methyl)piperidin-1-yl]pyrimidin-4-yl}amino)-2-oxo-1-(propan-2-yl)-1,2-dihydroquinolin-3-yl]oxy}-N-methylacetamide]"

# Same assay, conditions: class symbols A-D, read-out: EC50 (nM)*
row,DC50 [nM],SMILES
1,50 to 100,"CNC(=O)COc1cc2cc(Nc3nc(N4CCC(OCCOc5ccc6c(c5)C(=O)N(C5CCC(=O)NC5=O)C6=O)CC4)ncc3Cl)ccc2n(C)c1=O (centres unmarked) [compound 72, 2-((6-((5-chloro-2-(4-(2-((2-(2,6-dioxopiperidin-3-yl)-1,3-dioxoisoindolin-5-yl)oxy)ethoxy)piperidin-1-yl)pyrimidin-4-yl)amino)-1-methyl-2-oxo-1,2-dihydroquinolin-3-yl)oxy)-N-methylacetamide]"
2,10 to 50,"CNC(=O)COc1cc2cc(Nc3nc(N4CCC(OCCOCCOCCOCCOCCOc5ccc6c(c5)CN(C5(C)CCC(=O)NC5=O)C6=O)CC4)ncc3Cl)ccc2n(C)c1=O (centres unmarked) [compound 84, 2-((6-((5-chloro-2-(4-((14-((2-(3-methyl-2,6-dioxopiperidin-3-yl)-1-oxoisoindolin-5-yl)oxy)-3,6,9,12-tetraoxatetradecyl)oxy)piperidin-1-yl)pyrimidin-4-yl)amino)-1-methyl-2-oxo-1,2-dihydroquinolin-3-yl)oxy)-N-methylacetamide]"
3,> 100,"CNC(=O)COc1cc2cc(Nc3nc(N4CCC(OCCOCCOCCOCCOc5ccc6c(c5)C(=O)N(C5CCC(=O)NC5=O)C6=O)CC4)ncc3Cl)ccc2n(C)c1=O (centres unmarked) [compound 60, 2-((6-((5-chloro-2-(4-(2-(2-(2-(2-((2-(2,6-dioxopiperidin-3-yl)-1,3-dioxoisoindolin-5-yl)oxy)ethoxy)ethoxy)ethoxy)ethoxy)piperidin-1-yl)pyrimidin-4-yl)amino)-1-methyl-2-oxo-1,2-dihydroquinolin-3-yl)oxy)-N-methylacetamide]"
4,> 100,"CN1C(=O)CCc2cc(Nc3cc(OC4CCN(C5CCN(c6ccc7c(c6)C(=O)N(C6CCC(=O)NC6=O)C7=O)CC5)CC4)c([N+](=O)[O-])cc3Cl)ccc21 (centres unmarked) [compound 79, 5-(4-(4-chloro-5-((1-methyl-2-oxo-1,2,3,4-tetrahydroquinolin-6-yl)amino)-2-nitrophenoxy)-[1,4′-bipiperidin]-1′-yl)-2-(2,6-dioxopiperidin-3-yl)isoindoline-1,3-dione]"
5,50 to 100,"CNC(=O)COc1cc2cc(Nc3nc(N4CCC(OCCOCCOCCCOCCCOc5ccc6c(c5)CN(C5CCC(=O)NC5=O)C6=O)CC4)ncc3Cl)ccc2n(C)c1=O (centres unmarked) [compound 145, 2-((6-((5-chloro-2-(4-(2-(2-(3-(3-((2-(2,6-dioxopiperidin-3-yl)-1-oxoisoindolin-5-yl)oxy)propoxy)propoxy)ethoxy)ethoxy)piperidin-1-yl)pyrimidin-4-yl)amino)-1-methyl-2-oxo-1,2-dihydroquinolin-3-yl)oxy)-N-methylacetamide]"

row,SMILES,DC50 [nM]
1,"CNC(=O)COc1cc2cc(Nc3nc(N4CCC(OCCOCCOCCCCOc5ccc(-c6ccc7c(c6)CN(C6CCC(=O)NC6=O)C7=O)cc5)CC4)ncc3Cl)ccc2n(C)c1=O (centres unmarked) [compound 94, 2-((6-((5-chloro-2-(4-(2-(2-(4-(4-(2-(2,6-dioxopiperidin-3-yl)-1-oxoisoindolin-5-yl)phenoxy)butoxy)ethoxy)ethoxy)piperidin-1-yl)pyrimidin-4-yl)amino)-1-methyl-2-oxo-1,2-dihydroquinolin-3-yl)oxy)-N-methylacetamide]",> 100

# Source: patent publication US12310975B2, “Modulators of BCL6 proteolysis and associated methods of use” (Arvinas Operations, Inc., priority 2019, dated 2025)
